Assay results taken from PubChem BioAssay (NCI).
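Compound exposure: 48 hours, 5 concentrations, 96-well plates. TGI: total growth inhibition.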

Assays:
Assay in all cases: NCI anticancer screen, dose series, 48 h
[1] = system: UO-31 renal
[2] = system: UACC-257 melanoma
[3] = system: PC-3 prostate
[4] = system: T-47D breast
[5] = system: SK-MEL-5 melanoma
[6] = system: MOLT-4 leukemia
[7] = system: SK-MEL-28 melanoma
[8] = system: SK-OV-3 ovarian
[9] = system: HS 578T breast
[10] = system: NCI-H460 lung
[11] = system: A498 renal
[12] = system: OVCAR-8 ovarian
[13] = system: NCI-H226 lung
[14] = system: CCRF-CEM leukemia
[15] = system: LOX IMVI melanoma
[16] = system: OVCAR-3 ovarian

Row | SMILES | TGI [1] [µM] | TGI [2] [µM] | TGI [3] [µM] | TGI [4] [µM] | TGI [5] [µM] | TGI [6] [µM] | TGI [7] [µM] | TGI [8] [µM] | TGI [9] [µM] | TGI [10] [µM] | TGI [11] [µM] | TGI [12] [µM] | TGI [13] [µM] | TGI [14] [µM] | TGI [15] [µM] | TGI [16] [µM]
1 | NC(=O)C(=CNC(=S)Nc1cccc(C(F)(F)F)c1)C(N)=O | > 100 | > 100 | > 100 | > 100 | > 100 | > 100 | > 100 | > 100 | > 100 | > 100 | > 100 | > 100 | > 100 | > 100 | > 100 | > 100
2 | N/C(=N\S(=O)(=O)c1cc(Cl)c(Oc2ccc([N+](=O)[O-])cc2Cl)c(Cl)c1)Nc1ccc(Cl)cc1 | 34.1 | 32.8 | 30.5 | 34.2 | 31.3 | 34.2 | 33 | 39.8 | > 100 | 40.1 | 29.4 | 31.9 | 33.2 | 52.1 | 31.6 | 37.6
3 | COC1=CC(=O)C2=C(C[C@@]3(C)C(=C2)C(CO)=CC[C@H]3O)C1=O | 39.5 | 36.9 | 69.1 | > 100 | 32.2 | 2.49 | 82.7 | > 100 | > 100 | 60.7 | > 100 | 32.9 | 29.2 | 38.4 | 38.9 | 56.2
4 | CC1(C)C2CCC(O)(C2)C1N (stereo not given) | > 100 | > 100 | > 100 | > 100 | > 100 | > 100 | > 100 | > 100 | > 100 | > 100 | > 100 | > 100 | > 100 | > 100 | > 100 | > 100
5 | O=C(N/N=C/C=C/c1ccc([N+](=O)[O-])o1)c1ccc(C(=O)N/N=C/C=C/c2ccc([N+](=O)[O-])o2)cc1 | > 100 | > 30 | > 52.3 | > 69.2 | 99.7 | > 43.6 | > 100 | > 100 | > 100 | > 88.5 | > 100 | 27.7 | > 100 | > 20.3 | > 75.8 | > 100
